Data: patent US8632452B2, “Peroxisome proliferator-activator receptor δ (PPARδ) and the development of preimplantation embryos” (Board of Regents of the University of Texas System, priority 2005, dated 2014)
pEC50: −log10 of the molar value.

Legend:
[1] = system: preimplantation mouse embryos (C3B6F1); experiment: TUNEL assay, dead cell index in cultured embryos; type: cell-based; conditions: 0.1 μM, 72 hrs of culture
Description: Terminal deoxynucleotidyl transferase mediated dUTP Nick End Labeling (TUNEL) and dead cell index. The embryonic cells that undergo programmed cell death were identified by TUNEL assay using a commercial kit (In Situ Cell Death Detection Kit, Roche Applied Science) with some modifications. At each time point indicated, embryos were collected after culture or harvested from mice and fixed in 4° C. PBS containing 4% buffered paraformaldehyde for 30 min. Prior to TUNEL, the embryos were incubated at 37° C. with 5% triton in PBS for 20 mins. The manufacturer's protocol was modified. Up to 20 blastocysts were incubated at 37° C. in 20 uL of TUNEL reaction solution (2 uL of TUNEL enzyme and 18 uL of 1:4 diluted labeling solution) in a humidified chamber for 60 mins. The embryos were then incubated in DAPI (30 ug/mL) for 5 mins at 37° C. before mounted in 16.6% Elvanol® 50-42 (Dupont, Wilmington, Del., USA) in 0.1 M Tris HCl pH 8.5. The apoptotic cells and the total cells were visualized using a fluorescence microscope (AxioPlan 2, Carl Zeiss, Germany) with FITC and UV filters, respectively. DNAse-treated embryos were used as positive controls. The dead cell index (percent of cells that were TUNEL positive) was determined by dividing the number of TUNEL-positive cells by the number of total cells then multiplies by 100%.

PPARδ+/+ embryos = experiment: Developmental stage (blastocyst formation) of cultured embryos at time of transfer; type: cell-based, mouse; conditions: wild type two-cell embryos treated 48 h
Excerpt: Harvest and culture of mouse embryos. Mice were obtained from the following sources: C3H, 129S1/SvImJ and C57BL6/J, the Jackson laboratory (Bar Harbor, Me., USA); ICR and C57BL6/Nhd, Harlan (Indianapolis, Ind., USA); PPARδ−/−, a gift from Dr. R. Evans (the Salk Institute, La Jolla, Calif.). The wild type (WT) counter parts of PPARδ−/− were bred by mating 129S1/SvImJ and the offspring of C57BL6/J×129S1/SvImJ. Mice were kept in temperature and humidity controlled environment (07:00 light on, 19:00 light off) with free access to food and water. The mouse embryos were harvested and cultured as described previously (Huang et al., 2003). […] Those completely free of the zona pellucida were counted as having completely hatched. The rate of complete hatching was calculated by dividing the number of completely hatched embryos by the number of total embryos. […]
Embryo transfer was performed as described previously (Huang et al., 2004b). […] Seventy-two h after embryo transfer, the rates of implantation were determined based on a previously-described method with modifications (Paria et al., 1993). […] After the carrier was sacrificed, the uterine horns were opened and the gestation sacs counted. The implantation rate was expressed as percentages of gestation sacs over total embryos transferred. […]

[2] = system: preimplantation mouse embryos (wild type, PPARδ+/+); experiment: Complete hatching of cultured wild type mouse embryos; type: cell-based; conditions: for rate of complete hatching versus control, ligand added at two-cell, eight-cell or morula stage: exposure 0-96, 24-96 and 48-96 hrs; for rate of complete hatching versus control, ligand added at two-cell, eight-cell or morula stage / rate of complete hatching versus control, ligand added at blastocyst stage: read at 96 hrs; for rate of complete hatching versus control, ligand added at blastocyst stage: exposure 72-96 hrs; for proportion of completely hatched embryos: 0.1 μM each ligand from two-cell stage, untreated 30%
Excerpt: (§1) Harvest and culture of mouse embryos. Mice were obtained from the following sources: C3H, 129S1/SvImJ and C57BL6/J, the Jackson laboratory (Bar Harbor, Me., USA); ICR and C57BL6/Nhd, Harlan (Indianapolis, Ind., USA); PPARδ−/−, a gift from Dr. R. Evans (the Salk Institute, La Jolla, Calif.). The wild type (WT) counter parts of PPARδ−/− were bred by mating 129S1/SvImJ and the offspring of C57BL6/J×129S1/SvImJ. Mice were kept in temperature and humidity controlled environment (07:00 light on, 19:00 light off) with free access to food and water. The mouse embryos were harvested and cultured as described previously (Huang et al., 2003). Briefly, three-week old female mice were super-ovulated with intra-peritoneal injection of PMSG (5 IU) followed by hCG (5 IU) 42-46 hrs later. After hCG injection (at 15:00), each female mouse was caged with one male mouse with proven fertility. Unless specified otherwise, embryos (at two-cell stage) were harvested 44-48 hrs later and cultured (17-20 per group) at 37° C. under 5% CO2 in 4-well plates (Nalge Nunc International, Naperville, Ill., USA) containing 600 ul protein-free media. The HTF media (Sage Biopharma, Bedminster, N.J., USA) was used during the first 48 hrs; the αMEM (Irvine Scientific), with Earle's Salts and 2 mM glutamine, was used during the second 48 hrs. After 96 hrs of culture, each embryo was examined for the presence of zona pellucida. Those completely free of the zona pellucida were counted as having completely hatched. The rate of complete hatching was calculated by dividing the number of completely hatched embryos by the number of total embryos. Complete embryo hatching was used as an end point because it is a clear cut endpoint and correlates with the likelihood of implantation and viable pregnancy (Huang et al., 2003; Huang et al., 2004b). The concentration of the vehicle (DMSO) was less than 1:10,000; control embryos received the same concentration of DMSO. Prism® Version 3.0 (GraphPad Software Inc. San Diego, Calif.), with the Hill slope set at 1.0, was used to estimate the ED50 of L-165041. Chi-square and Student's t-tests were used where appropriate (InStat® Version 3.05, GraphPad Software Inc.). A p<0.05 was considered statistically significant.

[3] = system: PPARδ+/+ embryos transferred to gestational carriers (ICR female mice); experiment: Embryo transfer to gestational carriers and determination of implantation rate; type: in vivo, mouse; conditions: wild type two-cell embryos treated 48 h, gestation sacs counted 72 h after transfer; control 41%, p<0.05
Description: Embryo transfer was performed as described previously (Huang et al., 2004b). Briefly, embryos were transferred to gestational carriers (ICR female mice) on day 2.5 of pseudopregnancy under a dissecting microscope (Olympus SZ-PT, Shinjuku-ku, Tokyo, Japan). After anesthesia, each uterine horn was accessed via a 1.5 cm flank incision. With the proximal oviduct held by a pair of forceps, an opening was created at the distal end of the uterine horn on the anti-mesenteric side with a 30 gauge needle. […] Up to seven embryos in 1.5 μl transfer medium (MEM with 25 mM HEPES and 1% BSA) were transferred to each horn. After each transfer, the contents of the pipette were examined under a stereomicroscope to identify retained embryos. To avoid the mixing of embryos as a result of embryo crossover (Dr. Andreas Zimmer, University of Bonn, Germany, MG118 List, the Jackson Laboratory), each gestational carrier received only one kind of embryo. […] Seventy-two h after embryo transfer, the rates of implantation were determined based on a previously-described method with modifications (Paria et al., 1993). […] After the carrier was sacrificed, the uterine horns were opened and the gestation sacs counted. The implantation rate was expressed as percentages of gestation sacs over total embryos transferred. […]

[4] = system: preimplantation mouse embryos; experiment: BrdU uptake, proliferation index and cell number in cultured embryos; type: cell-based
Description: 5-Bromo-2′-deoxy-uridine (BrdU) uptake and the proliferation index. The proliferation of embryonic cells was determined based on their abilities to incorporate BrdU. The assay was performed using a commercial kit (BrdU Labeling and Detection Kit I, Roche Applied Science, Indianapolis, Ind.) according to manufacturer's protocols with some optimizations. One of the changes was the duration of incubation. […] For the comparison between control and L165,041 treated embryos, the optimal time was 6 minutes. The modified procedure is as follows. Immediately after harvest, the embryos were incubated in 100 μl pre-equilibrated HTF medium containing 10 μM BrdU for […] at 37° C. under 5% CO2. Following the incubation, the embryos were fixed in ice-cold glycine (50 mM) in 70% ethanol (pH2.0) at −20° C. for 30 mins. Following rehydration/blocking in phosphate buffered saline (PBS) containing 1% BSA, the embryos were incubated with diluted anti-BrdU mouse monoclonal antibody (1:2) in the incubation buffer containing 1% BSA and followed by another incubation with a diluted FITC-conjugated […] IgG antibody (1:4) in PBS containing 1% BSA. Both incubations were at 37° C. and lasted for 30 mins; the embryos were washed in 200 μl PBS containing 1% BSA after each incubation. After a final incubation in DAPI (5 μg /ml) for 90 mins at 25° C., the embryos were mounted in 0.1 M Tris HCl (pH 8.5) containing 16.6% Elvanol® 50-42 (DuPont Wilmington, Del., USA) and 2.5% 1,4-diazabicyclo-(2.2.2)-octane. Cells that were in S-phase and, therefore, incorporated BrdU were identified under a FITC filter. Total cell number was determined based on DAPI nuclear staining under a UV filter (AxioPlan 2, Carl Zeiss, Germany). The proliferation index (percent of cells in S-phase) was determined by dividing the number of BrdU-positive cells by the number of total cells then multiplies by 100%.
The proliferation of embryonic cells was determined based on their abilities to incorporate BrdU. […] Total cell number was determined based on Hoechst 33258 nuclear staining under a UV filter.

PPARδ−/− embryos = experiment: Complete hatching of cultured PPARδ−/− mouse embryos; type: cell-based; conditions: 96 h; for effect on hatching of PPARδ−/− embryos: 0.1 μM from two-cell stage
Excerpt: as §1, with “DMSO.” for “DMSO. Prism® Version 3.0 (GraphPad Software Inc. San Diego, Calif.), with the Hill slope set at 1.0, was used to estimate the ED50 of L-165041. Chi-square and Student's t-tests were used where appropriate (InStat® Version 3.05, GraphPad Software Inc.). A p<0.05 was considered statistically significant.”

[5] = system: mouse embryos transferred to gestational carriers; conditions: treated embryos transferred to gestational carriers; cited from earlier work

Row | SMILES | dead (apoptotic, TUNEL positive) cells versus control [1] | blastocyst formation versus control (PPARδ+/+ embryos) | complete embryo hatching versus control ([2]; 1 μM ligand, two-cell embryos (C3B6F1), 96 hrs) | relative risk of complete hatching versus control group ([2]; 1 μM, 96 hrs, 95% confidence interval 1.08-3.36) | rate of complete hatching versus control, ligand added at two-cell, eight-cell or morula stage ([2]; 1 μM) | rate of complete hatching versus control, ligand added at two-cell, eight-cell or morula stage ([2]; 1 μM, listed as L-165041) | rate of complete hatching versus control, ligand added at blastocyst stage ([2]; 1 μM) | rate of complete hatching versus control, ligand added at blastocyst stage ([2]; 1 μM, listed as L-165041) | pEC50 ([2]; Mus musculus, two-cell embryos cultured 96 hrs in different concentrations, estimated, Hill slope 1.0, read-out: ED50 of enhancement of complete embryo hatching) | proportion of completely hatched embryos ([2]; wild type embryos, 96 h) | implantation rate (gestation sacs over embryos transferred) [3] | cells in the S-phase (BrdU incorporation) versus control ([4]; 0.1 μM, 72 hrs of culture, BrdU 6 minutes) | average number of cells per embryo ([4]; 0.1 μM, 72 hrs of culture, same in control group) | percentages of BrdU-positive cells over the untreated control ([4]; 10 μM BrdU, wild type embryos) | effect on hatching of PPARδ−/− embryos (PPARδ−/− embryos) | completely hatched embryos versus total embryos ([2]; wild type embryos, 0.1 μM, 96 h) | completely hatched embryos versus total embryos (PPARδ−/− embryos; PPARδ−/− embryos, 0.1 μM, untreated 4/144) | more live births over control embryos [5]
1 | CCCc1c(OCCCOc2ccc(OCC(=O)O)cc2)ccc(C(C)=O)c1O [L165,041, 4-[3-(4-Acetyl-3-hydroxy-2-propylphenoxy)propoxy]phenoxy-acetic acid] | less dead cells | did not significantly enhance blastocyst formation | enhanced complete embryo hatching | 1.9 | significantly higher rates of complete hatching | effective in stimulating embryo hatching | the difference was not statistically significant | no longer effective in stimulating hatching | 7.68 | 54% | 64% | more cells in the S-phase | 63 | increased the percentages of BrdU-positive cells | Neither iloprost nor L-165041 affected the hatching of PPARδ−/− embryos | – | – | –
2 | CC#CCC(C)[C@H](O)/C=C/[C@@H]1[C@H]2C/C(=C/CCCC(=O)O)C[C@H]2C[C@H]1O (some centres unmarked) [iloprost] | – | – | – | – | – | – | – | – | – | 50% | – | – | – | – | had no effect | 37/74 | 3/144 | 28%
